Data from PMC3429506, “Screening for Novel LRRK2 Inhibitors Using a High-Throughput TR-FRET Cellular Assay for LRRK2 Ser935 Phosphorylation” (PLoS ONE, 2012).

Assays:
[1] = molecular target: T1, GFP-LRRK2 G2019S (Homo sapiens, UniProt Q5S007, G2019S); test: Immunoprecipitation/Western analysis of LRRK2 phosphorylation at Ser910, Ser935, Ser955, Ser973 in HEK293 T-REx GFP-LRRK2 G2019S cells; assay type: cell-based; settings: 20 µM, 90 min, HEK293 GFP-LRRK2 G2019S, Figure 6
T1 construct: expressed in transfected cells
Description: Immunoblot analysis: BacMam LRRK2-GFP transduced U-2 OS or SH-SY5Y cells (10^7 cells) were left untreated or treated with 3 µM LRRK2-IN-I for 90 min. For lysate preparation, the cells were washed once with ice-cold PBS and lysed by addition of ice-cold lysis buffer (20 mM Tris-HCl, pH 7.4, 1% NP-40, 5 mM EDTA, 5 mM NaF, 150 mM NaCl, and 1∶100 of protease and phosphatase inhibitor cocktails). The lysate was cleared of debris by centrifugation. Equal amount of total protein was loaded onto each lane for SDS-PAGE (3–8% Tris Acetate). The proteins were transferred onto nitrocellulose membrane using the iBLOT® dry blotting system (Life Technologies) according to manufacturer’s protocol. The membranes were blocked and incubated with a primary antibody against LRRK2 (Cell Signaling Technologies), followed by incubation with alkaline phosphatase-conjugated secondary antibody (WesternBreeze® chromogenic Kit, Life Technologies). The blot was developed by using the chromogenic BCIP/NBT substrate (WesternBreeze® chromogenic Kit, Life Technologies). […] Two days post induction, cells were treated for 90 minutes in the presence of 20 µM of compound or DMSO vehicle control. Cells were rapidly lysed in ice cold lysis buffer 50 mM Tris/HCl, pH 7.5, 1 mM EGTA, 1 mM EDTA, […] 1 mM sodium orthovanadate, 10 mM sodium beta-glycerolphosphate, 50 mM NaF, 5 mM sodium pyrophosphate, 0.27 M sucrose, 1 mM benzamidine and 2 mM phenylmethanesulphonylfluoride (PMSF) and one tablet each complete protease inhibitor and PhosSTOP phosphatase inhibitor (Roche) and was supplemented with 1% (v/v) Triton X-100. GFP-LRRK2 was immunoprecipitated with GFP nanotrap beads (ChromoTek). Immunecomplexes were washed twice with lysis buffer supplemented with 300 mM NaCl and once with Buffer A (50 mM Tris/HCl, pH 7.5, 50 mM NaCl, 0.1 mM EGTA and 0.1% (v/v) 2-mercaptoethanol, and 0.27 M sucrose).

[2] = molecular target: LRRK2 G2019S (Homo sapiens, UniProt Q5S007, G2019S); test: TR-FRET cellular assay for LRRK2 Ser935 phosphorylation, human neural stem cells, BacMam LRRK2-GFP G2019S; assay type: cell-based; set-up: This high-throughput assay utilizes cells expressing full-length human LRRK2 with a C-terminal GFP tag (LRRK2-GFP); host or cells: U-2 OS, SH-SY5Y, HEK293T cells or human neural stem cells transduced with BacMam; settings: 10% BacMam G2019S, 90 min, Figure 4, read-out: IC50, inhibition of G2019S Ser935 phosphorylation via TR-FRET
Description: U-2 OS cells are maintained in growth medium (McCoy’s 5A supplemented with 10% dialyzed FBS (dFBS), 10 mM HEPES, 0.1 mM NEAA, 1 mM Sodium Pyruvate, and 100 U/mL Penicillin/100 µg/mL Streptomycin). HEK293T cells are maintained in DMEM with 10% dFBS, 10 mM HEPES, 0.1 mM NEAA and 100 U/mL Penicillin/100 µg/mL Streptomycin. SH-SY5Y cells are maintained in DMEM/F-12 medium supplemented with 10% dFBS and 100 U/mL Penicillin/100 µg/mL Streptomycin. […] GIBCO® human neural stem cells (hNSCs) were propagated as an adherent culture in StemPro® NSC SFM according to the manufacturer’s recommended protocol (Life Technologies). For BacMam transduction of U-2 OS and HEK293T, cells were harvested, mixed with various amounts of BacMam LRRK2-GFP reagent (v/v) and plated onto 6-well plates. […] Cells were assayed in 384-well format (∼20,000 cells/well) 48 hours post-transduction as above.
Transduced cells in the 384-well assay plate were incubated with indicated inhibitors (5X, 5 µL/well) for 60 to 90 minutes. During this time, 6 X lysis buffer (Life Technologies) was supplemented with 30 nM Tb-labeled anti-LRRK2 pSer935 antibody and both protease and phosphatase inhibitor cocktails (Sigma). […] Z′-factor values were calculated as: Z′-factor = 1 - [(3 × stdevno virus +3 × stdevmaxvirus)/(avgmaxvirus – avgno-virus)]. […]

[3] = tested on: LRRK2-GFP; test: Western blot analysis of LRRK2-GFP phosphorylation in BacMam transduced U-2 OS cells; assay type: cell-based, human; settings: LRRK2-IN-1 3 µM 90 min, wild-type, G2019S, R1441C, Figure 1B
Description: (§1) Immunoblot analysis: BacMam LRRK2-GFP transduced U-2 OS or SH-SY5Y cells (10^7 cells) were left untreated or treated with 3 µM LRRK2-IN-I for 90 min. For lysate preparation, the cells were washed once with ice-cold PBS and lysed by addition of ice-cold lysis buffer (20 mM Tris-HCl, pH 7.4, 1% NP-40, 5 mM EDTA, 5 mM NaF, 150 mM NaCl, and 1∶100 of protease and phosphatase inhibitor cocktails). The lysate was cleared of debris by centrifugation. Equal amount of total protein was loaded onto each lane for SDS-PAGE (3–8% Tris Acetate). The proteins were transferred onto nitrocellulose membrane using the iBLOT® dry blotting system (Life Technologies) according to manufacturer’s protocol. The membranes were blocked and incubated with a primary antibody against LRRK2 (Cell Signaling Technologies), followed by incubation with alkaline phosphatase-conjugated secondary antibody (WesternBreeze® chromogenic Kit, Life Technologies). The blot was developed by using the chromogenic BCIP/NBT substrate (WesternBreeze® chromogenic Kit, Life Technologies). […]

[4] = molecular target: T2, LRRK2-GFP (Homo sapiens, UniProt Q5S007, G2019S); test: as above; assay type: cell-based; settings: BacMam LRRK2-GFP G2019S, 10 µM, Figure S1
T2 construct: GFP is fused to the C-terminus of full-length human LRRK2 wild-type, G2019S, R1441C and kinase-dead D1994A; host or cells: U-2 OS cells transduced with BacMam
Description: as §1

Sequence of LRRK2 G2019S (Q5S007 whole entry G2019S): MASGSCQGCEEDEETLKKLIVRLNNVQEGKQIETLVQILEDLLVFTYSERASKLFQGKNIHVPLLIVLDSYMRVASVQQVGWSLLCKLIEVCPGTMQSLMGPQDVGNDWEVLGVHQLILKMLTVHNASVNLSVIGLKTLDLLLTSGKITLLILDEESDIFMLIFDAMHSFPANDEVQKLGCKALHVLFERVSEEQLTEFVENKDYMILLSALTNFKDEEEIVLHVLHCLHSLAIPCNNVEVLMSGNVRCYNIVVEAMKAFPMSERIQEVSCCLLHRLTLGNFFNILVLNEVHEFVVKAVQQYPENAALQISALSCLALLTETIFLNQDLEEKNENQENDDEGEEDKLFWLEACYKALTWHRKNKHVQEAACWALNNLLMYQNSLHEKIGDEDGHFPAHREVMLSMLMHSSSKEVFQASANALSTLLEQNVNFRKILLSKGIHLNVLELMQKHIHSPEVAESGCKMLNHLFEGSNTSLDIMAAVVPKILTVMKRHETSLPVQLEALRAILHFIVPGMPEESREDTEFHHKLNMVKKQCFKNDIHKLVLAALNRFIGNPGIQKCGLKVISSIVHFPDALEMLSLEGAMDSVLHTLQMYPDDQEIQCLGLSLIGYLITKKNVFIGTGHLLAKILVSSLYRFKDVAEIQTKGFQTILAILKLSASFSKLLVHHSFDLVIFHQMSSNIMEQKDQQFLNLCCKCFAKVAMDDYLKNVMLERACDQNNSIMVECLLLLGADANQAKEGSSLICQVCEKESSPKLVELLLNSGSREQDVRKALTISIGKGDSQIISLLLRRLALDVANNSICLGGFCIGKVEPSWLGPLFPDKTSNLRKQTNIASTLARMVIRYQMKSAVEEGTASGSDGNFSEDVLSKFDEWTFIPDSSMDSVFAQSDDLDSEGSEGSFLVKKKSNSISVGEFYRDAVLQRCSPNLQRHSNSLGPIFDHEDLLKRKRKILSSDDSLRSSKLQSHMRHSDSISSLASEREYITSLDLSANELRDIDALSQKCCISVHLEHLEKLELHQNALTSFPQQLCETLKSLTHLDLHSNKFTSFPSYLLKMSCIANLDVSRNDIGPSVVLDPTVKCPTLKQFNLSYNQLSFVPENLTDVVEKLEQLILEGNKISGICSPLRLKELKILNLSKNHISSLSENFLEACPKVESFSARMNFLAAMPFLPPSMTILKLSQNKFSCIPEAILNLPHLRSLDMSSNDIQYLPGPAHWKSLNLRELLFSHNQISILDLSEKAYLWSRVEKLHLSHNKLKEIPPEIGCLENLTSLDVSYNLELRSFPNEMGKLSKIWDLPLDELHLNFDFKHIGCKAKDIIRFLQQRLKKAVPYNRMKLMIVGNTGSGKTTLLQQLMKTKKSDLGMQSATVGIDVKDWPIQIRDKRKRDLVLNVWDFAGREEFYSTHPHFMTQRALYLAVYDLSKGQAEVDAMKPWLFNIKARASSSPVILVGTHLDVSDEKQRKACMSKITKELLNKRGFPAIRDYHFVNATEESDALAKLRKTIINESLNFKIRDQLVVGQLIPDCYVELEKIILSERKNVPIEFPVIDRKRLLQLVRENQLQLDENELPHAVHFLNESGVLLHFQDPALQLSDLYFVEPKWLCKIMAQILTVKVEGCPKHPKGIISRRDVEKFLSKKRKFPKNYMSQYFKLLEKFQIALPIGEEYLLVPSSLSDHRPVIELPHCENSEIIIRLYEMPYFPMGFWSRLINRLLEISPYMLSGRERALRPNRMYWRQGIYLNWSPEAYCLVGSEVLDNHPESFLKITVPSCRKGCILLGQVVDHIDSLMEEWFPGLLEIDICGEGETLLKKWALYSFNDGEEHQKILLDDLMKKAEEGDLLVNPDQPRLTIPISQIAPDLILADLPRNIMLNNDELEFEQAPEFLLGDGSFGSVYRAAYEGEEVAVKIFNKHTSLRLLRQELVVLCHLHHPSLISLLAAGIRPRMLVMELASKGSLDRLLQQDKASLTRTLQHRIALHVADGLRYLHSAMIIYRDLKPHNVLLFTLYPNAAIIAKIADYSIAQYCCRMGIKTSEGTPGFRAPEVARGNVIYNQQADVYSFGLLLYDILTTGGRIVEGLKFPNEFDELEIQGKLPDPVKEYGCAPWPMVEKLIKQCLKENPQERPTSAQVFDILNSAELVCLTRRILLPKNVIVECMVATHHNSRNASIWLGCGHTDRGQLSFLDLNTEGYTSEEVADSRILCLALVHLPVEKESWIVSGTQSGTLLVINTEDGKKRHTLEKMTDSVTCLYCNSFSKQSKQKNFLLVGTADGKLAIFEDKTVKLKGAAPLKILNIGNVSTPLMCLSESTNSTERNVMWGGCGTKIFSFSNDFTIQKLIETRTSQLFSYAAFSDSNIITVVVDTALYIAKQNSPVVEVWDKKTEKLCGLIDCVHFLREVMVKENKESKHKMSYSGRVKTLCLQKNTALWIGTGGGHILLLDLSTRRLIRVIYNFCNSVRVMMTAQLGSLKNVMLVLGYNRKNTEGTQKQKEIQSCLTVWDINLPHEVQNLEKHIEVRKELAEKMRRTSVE
T2 sequence (Q5S007 whole entry G2019S, the tested form may be a part): as the sequence (Q5S007 whole entry G2019S) above
T1 sequence (Q5S007 whole entry G2019S): as above

## COc1cc(C(=O)N2CCC(N3CCN(C)CC3)CC2)ccc1Nc1ncc2c(n1)N(C)c1ccccc1C(=O)N2C [LRRK2-IN-1]
[1]
  effect on phosphorylation of Ser910, Ser935, Ser955 and Ser973 (IP-Western): inhibited phosphorylation of Ser910, Ser935, Ser955 and Ser973
[2]
  IC50: 30 nM
[3]
  Ser935 phosphorylation by Western blot: diminished
[4]
  phosphorylation at Ser910, Ser935, Ser955 and Ser973 by immunoblot: responsive to LRRK2-IN-1 treatment
